Values joined by “and” are separate entries in the source; they are usually repeats but may differ in a detail not shown here. Equal values may be shown once. Read-outs that look alike come from different tables or passages of the source.
Legend:
[1] = cited from earlier work
LAB = experiment: In vitro RGE fermentation with LAB; type: in vitro ADME; conditions: RGE incubated with LAB (1 billion CFU) for 7 days at 37 °C; result in words
[2] = Pharmacokinetic study of ginsenosides in healthy humans after repeated oral RGE with or without LAB; type: in vivo, human; conditions: for Cmax / MRT / Tmax / AUC: male, in vivo, human plasma, mean ± SD, n = 5; for Cmax: read-out: Cmax; for MRT: read-out: MRT; for Tmax: read-out: Tmax; for AUC: AUC 0 to 24 h, read-out: AUC
[3] = Transport (permeability) of ginsenosides in CaCo-2 cell monolayers; type: in vitro ADME; conditions: human, Caco-2, CaCo-2 cell monolayers, 50 µM; B to A Papp divided by A to B Papp; read-out: Efflux ratio (ER)
[4] = 104.1 mg total ginsenosides/day, RGE group, RGE oral 14 days

Question: For CC(C)=CCC[C@](C)(O)[C@H]1CC[C@]2(C)[C@@H]1[C@H](O)C[C@@H]1[C@@]3(C)CC[C@H](O[C@@H]4O[C@H](CO)[C@@H](O)[C@H](O)[C@H]4O)C(C)(C)[C@@H]3CC[C@]12C [GRh2, ginsenoside Rh2], which “Oral BA” value [1] is on record?
Answer: The value was 5%.

Question: What about the “Relative abundance / metabolic activity following fermentation of RGE with LAB” value (LAB) of the same compound?
Answer: The value was “significantly increased”.

Question: What about the “Fold increase of plasma AUC after LAB supplementation” value ([2]; RGE + LAB group compared to RGE group, humans, 2 weeks) of the same compound?
Answer: The value was 2.1 fold and 2.7 fold.

Question: And the “Change of AUC / pharmacokinetic parameters by RGE and LAB co-administration” value ([2]; RGE + LAB group versus RGE group, humans, result in words)?
Answer: Its value is “significantly increased”.

Question: What about the Cmax [2, 4] of the same compound?
Answer: Its Cmax is 2.1 ± 0.8 ng/mL.

Question: And the MRT [2, 4]?
Answer: Its MRT is 17 ± 9.3 h.

Question: What about the Tmax [2, 4] of the same compound?
Answer: The Tmax was 10.7 ± 0.6 h.

Question: What about the AUC ([2]; RGE + LAB group, RGE plus LAB (1 billion CFU/2 g) once daily oral 14 days) of the same compound?
Answer: Its AUC is 57.1 ± 22 ng·h/mL.

Question: And the Cmax ([2]; RGE + LAB group, oral 14 days)?
Answer: Its Cmax is 13.9 ± 12.8 ng/mL.

Question: What about the MRT ([2]; RGE + LAB group, oral 14 days) of the same compound?
Answer: Its MRT is 10.2 ± 1.6 h.

Question: What about the Tmax ([2]; RGE + LAB group, oral 14 days) of the same compound?
Answer: The Tmax was 10.6 ± 1.8 h.

Question: And the AUC ([2]; RGE group, RGE once daily oral 14 days (104.1 mg total ginsenosides/day))?
Answer: The AUC was 21.3 ± 10.1 ng·h/mL.

Question: And the efflux ratio at 50 µM [3]?
Answer: Its efflux ratio at 50 µM is 2.3.

Reference: publication PMC9775652, “Concomitant Administration of Red Ginseng Extract with Lactic Acid Bacteria Increases the Plasma Concentration of Deglycosylated Ginsenosides in Healthy Human Subjects” (Biomolecules, 2022)
